Values quoted from earlier work, collected in paper PMC2929769 (Toxicon : official journal of the International Society on …, 2010).

Test system: RTA
Conditions: read-out: RTA IC50

Q: For `Nc1nc(=O)c(CCCc2ccc(C(=O)O)cc2)c(O)[nH]1` [PBA, 4-[3-(2-amino-1,4-dihydro-6-hydroxy-4-oxo-5-pyrimidinyl)propyl]-benzoic acid], which IC50 is on record?
A: 270 µM
